Results taken from patent publication US20100260683A1, “THERMOLABILE LIPOSOME WITH CONTROLLED RELEASE TEMPERATURE” (MAX-PLANCK-GESELLSCHAFT ZUR FORDERUNG DER WISSENCHAFTEN E.V., priority 2001, published 2010).

Assay: Main transition temperature (TM) of phosphatidylcholines
Assay type: physicochemical
Settings: acyl chains at positions 1 and 2 of glycero-3-phosphocholine or 1 and 3 of glycero-2-phosphocholine
Experimental: The abovementioned preferred composition of the liposome according to the invention can be made to measure for other temperature ranges by choice of components having the main transition temperature suitable in each case. In table 1, the main transition temperatures (TM) of phosphatidylcholines are indicated whose main transition temperature lies in the range from 0 to 80° C. The main transition temperatures are recognizable as from the table, depending on the chain length and the distribution over the positions 1 and 2 of glycero-3-phosphocholine or 1 and 3 of glycero-2-phosphocholine.

TM (main transition temperature) [°C]	Structure (SMILES)
66	CCCCCCCCCCCCCCCCCCCC(=O)OC[C@H](COP(=O)([O-])OCC[N+](C)(C)C)OC(=O)CCCCCCCCCCCCCCCCCCC [1,2-diarachinoyl-]
75	CCCCCCCCCCCCCCCCCCCCCC(=O)OC[C@H](COP(=O)([O-])OCC[N+](C)(C)C)OC(=O)CCCCCCCCCCCCCCCCCCCCC [1,2-dibehenoyl-]
80	CCCCCCCCCCCCCCCCCCCCCCCC(=O)OC[C@H](COP(=O)([O-])OCC[N+](C)(C)C)OC(=O)CCCCCCCCCCCCCCCCCCCCCCC [1,2-dilignoceroyl-]
23	CCCCCCCCCCCCCC(=O)OC[C@H](COP(=O)([O-])OCC[N+](C)(C)C)OC(=O)CCCCCCCCCCCCC [1,2-dimyristoyl-]
41	CCCCCCCCCCCCCCCC(=O)OCC(COP(=O)([O-])OCC[N+](C)(C)C)OC(=O)CCCCCCCCCCCCCCC (stereo not drawn) [1,2-dipalmitoyl-, 1,2-di-palmitoylglycero-3-phosphocholine]
56	CCCCCCCCCCCCCCCCCC(=O)OCC(COP(=O)([O-])OCC[N+](C)(C)C)OC(=O)CCCCCCCCCCCCCCCCC (stereo not drawn) [1,2-distearoyl-, 1,2-distearoylglycero-3-phospho-choline]
19	CCCCCCCCCCCCCC(=O)OCC(COC(=O)CCCCCCCCCCCCC)OP(=O)([O-])OCC[N+](C)(C)C [1,3-dimyristoyl-]
39	CCCCCCCCCCCCCCCC(=O)OCC(COC(=O)CCCCCCCCCCCCCCC)OP(=O)([O-])OCC[N+](C)(C)C [1,3-dipalmitoyl-]
53	CCCCCCCCCCCCCCCCCC(=O)OCC(COC(=O)CCCCCCCCCCCCCCCCC)OP(=O)([O-])OCC[N+](C)(C)C [1,3-distearoyl-]
14	CCCCCCCC/C=C\CCCCCCCC(=O)O[C@H](COC(=O)CCCCCCCCCCCCCCCCCCCCC)COP(=O)([O-])OCC[N+](C)(C)C [1-behenoyl-2-oleoyl-]
37	CCCCCCCCCCCCCCCC(=O)OC(COC(=O)CCCCCCCCCCCCC)COP(=O)([O-])OCC[N+](C)(C)C (stereo not drawn) [1-myristoyl-2-palmitoyl]
42	CCCCCCCCCCCCCCCCCC(=O)O[C@H](COC(=O)CCCCCCCCCCCCC)COP(=O)([O-])OCC[N+](C)(C)C [1-myristoyl-2-stearoyl-]
11	CCCCCCCCCCCCCCCC(=O)OC[C@H](COP(=O)([O-])OCC[N+](C)(C)C)OC(=O)CCCCCCCCCCC [1-palmitoyl-2-lauroyl-]
27	CCCCCCCCCCCCCCCC(=O)OC[C@H](COP(=O)([O-])OCC[N+](C)(C)C)OC(=O)CCCCCCCCCCCCC [1-palmitoyl-2-myristoyl-]
5	CCCCCCCC/C=C\CCCCCCCC(=O)O[C@H](COC(=O)CCCCCCCCCCCCCCC)COP(=O)([O-])OCC[N+](C)(C)C [1-palmitoyl-2-oleoyl-]
52	CCCCCCCCCCCCCCCCCC(=O)O[C@H](COC(=O)CCCCCCCCCCCCCCC)COP(=O)([O-])OCC[N+](C)(C)C [1-palmitoyl-2-stearoyl-]
17	CCCCCCCCCCCCCCCCCC(=O)OC[C@H](COP(=O)([O-])OCC[N+](C)(C)C)OC(=O)CCCCCCCCCCC [1-stearoyl-2-lauroyl-]
33	CCCCCCCCCCCCCCCCCC(=O)OC[C@H](COP(=O)([O-])OCC[N+](C)(C)C)OC(=O)CCCCCCCCCCCCC [1-stearoyl-2-myristoyl-]
7	CCCCCCCC/C=C\CCCCCCCC(=O)O[C@H](COC(=O)CCCCCCCCCCCCCCCCC)COP(=O)([O-])OCC[N+](C)(C)C [1-stearoyl-2-oleoyl-]
48	CCCCCCCCCCCCCCCCCC(=O)OC[C@H](COP(=O)([O-])OCC[N+](C)(C)C)OC(=O)CCCCCCCCCCCCCCC [1-stearoyl-2-palmitoyl-]
46	CCCCCCCCCCCCCCCCCC(=O)OCC(COC(=O)CCCCCCCCCCCCC)OP(=O)([O-])OCC[N+](C)(C)C (stereo not drawn) [1-stearoyl-3-myristoyl-]
